The values that follow come from patent US20180200339A1, “METHODS OF REDUCING CORNEAL ENDOTHELIAL CELL LOSS” (Massachusetts Eye and Ear Infirmary, priority 2013, published 2018).

In one assay the test system is cornea. Put plainly: VIP treatment of mice after trigeminal axotomy: corneal thickness by AS-OCT. The assay is classed as in vivo, BALB/c mice. The following applies: daily intraperitoneal VIP 5 nM in 10 μL, day 14, AS-OCT, versus saline. Here is the method: Six- to eight-week old male BALB/c mice (Charles River, Wilmington, Mass.) were used in these experiments. Trigeminal axotomy was performed by first anesthetizing the animals with a ketamine (100 mg/mL)/xylazine (20 mg/mL)/acepromazine (15 mg/mL) mixture. After anesthetization, small incision lateral canthotomy was performed, two tractional sutures were placed on the lid skin, and the conjunctival fornix were incised circumferentially around 90 degrees. The eye globe was rotated nasally by gently pushing the nasal fornix with blunt forceps, exposing the trigeminal nerve and minimizing intraoperative bleeding through mild elevation of the intraorbital pressure. The ophthalmic branches of the trigeminal nerve were cut at the posterior sclera close to the optic nerve with sharp forceps. After cutting the branches of the trigeminal nerve, the skin was sutured using 8-0 nylon. Tarsorrhaphy was performed to reduce the risk of infection and exposure keratitis in the mice. Finally, an antibiotic ointment (bacitracin-neomycin-polymyxin mixture) was applied to the sutured area and the treated eye in the mice. […]
Normal and post-operative cornea were examined using anterior segment optical coherence tomography (AS-OCT, RTVue, Optoview, Inc., Fremont, Calif.) at 7, 14 and 21 days after the surgical procedure. […] The corneal thickness was measured using built-in software. […]

The test system of assay [1] is corneal endothelial cells. The experiment in a line: VIP treatment of mice after trigeminal axotomy: corneal endothelial cell density (immunofluorescence, ZO-1 staining). The assay is classed as in vivo, BALB/c mice. The following applies: daily intraperitoneal VIP 5 nM in 10 μL, day 14, versus saline. How it is done: Six- to eight-week old male BALB/c mice (Charles River, Wilmington, Mass.) were used in these experiments. Trigeminal axotomy was performed by first anesthetizing the animals with a ketamine (100 mg/mL)/xylazine (20 mg/mL)/acepromazine (15 mg/mL) mixture. After anesthetization, small incision lateral canthotomy was performed, two tractional sutures were placed on the lid skin, and the conjunctival fornix were incised circumferentially around 90 degrees. The eye globe was rotated nasally by gently pushing the nasal fornix with blunt forceps, exposing the trigeminal nerve and minimizing intraoperative bleeding through mild elevation of the intraorbital pressure. The ophthalmic branches of the trigeminal nerve were cut at the posterior sclera close to the optic nerve with sharp forceps. After cutting the branches of the trigeminal nerve, the skin was sutured using 8-0 nylon. Tarsorrhaphy was performed to reduce the risk of infection and exposure keratitis in the mice. Finally, an antibiotic ointment (bacitracin-neomycin-polymyxin mixture) was applied to the sutured area and the treated eye in the mice. Fluxinin (0.25 mg /kg body weight) was administered every 12 hours for 24 hours by subcutaneous injection. […]
Corneal endothelial cells were counted using cell counter plug-ins with ImageJ software (NIH, Bethesda, Md.). […] The results are expressed as mean±SEM, and considered significant if p<0.05.

Regarding vasoactive intestinal peptide [VIP], the corneal thickness entry in the assay on cornea is “remained within the normal ranged”. The “corneal endothelial cell density” value in assay [1] is given as “didn't decrease”.
